Laboratory results from US10870629B2, “18F-labelled compound for prostate cancer diagnosis, and use thereof” (FUTURECHEM CO., LTD., priority 2017, dated 2020).

Key:
PC-3 PIP = assay: Measurement of cellular internalization; format: cell-based, human
Text: Then, the membrane protein and the cytoplasmic protein were separated by using Mem-PER Plus Membrane Protein Extraction Kit and NE-PER Nuclear and Cytoplasmic Extraction Kit (ThermoFisher Scientific). The internalization rate (%) was confirmed by obtaining the radioactivity ratio in the cytoplasmic protein to the total radioactivity.

PSMA+ PC-3 PIP tumors = assay: MicroPET/CT in mice transplanted with prostate cancer cell lines; format: in vivo, nude mouse; details: for tumor binding (MicroPET/CT, FIG. 3): nude mouse with PC-3 PIP and PC-3 flu tumors; for excretion (MicroPET/CT, FIG. 3): nude mouse, intravenous, 60 minutes imaging
PSMA protein = molecular target: T1, PSMA protein (Homo sapiens, UniProt Q04609); assay: Measurement of binding capacity: competition with [125I]15 on 22RV1 cells; details: for IC50: [125I]15 0.1 nM, 37° C., 2 hours, read-out: IC50 (Mean ± SD)
T1 construct: host or cells: 22RV1 human prostate cancer cells
T1 sequence (Q04609 whole entry): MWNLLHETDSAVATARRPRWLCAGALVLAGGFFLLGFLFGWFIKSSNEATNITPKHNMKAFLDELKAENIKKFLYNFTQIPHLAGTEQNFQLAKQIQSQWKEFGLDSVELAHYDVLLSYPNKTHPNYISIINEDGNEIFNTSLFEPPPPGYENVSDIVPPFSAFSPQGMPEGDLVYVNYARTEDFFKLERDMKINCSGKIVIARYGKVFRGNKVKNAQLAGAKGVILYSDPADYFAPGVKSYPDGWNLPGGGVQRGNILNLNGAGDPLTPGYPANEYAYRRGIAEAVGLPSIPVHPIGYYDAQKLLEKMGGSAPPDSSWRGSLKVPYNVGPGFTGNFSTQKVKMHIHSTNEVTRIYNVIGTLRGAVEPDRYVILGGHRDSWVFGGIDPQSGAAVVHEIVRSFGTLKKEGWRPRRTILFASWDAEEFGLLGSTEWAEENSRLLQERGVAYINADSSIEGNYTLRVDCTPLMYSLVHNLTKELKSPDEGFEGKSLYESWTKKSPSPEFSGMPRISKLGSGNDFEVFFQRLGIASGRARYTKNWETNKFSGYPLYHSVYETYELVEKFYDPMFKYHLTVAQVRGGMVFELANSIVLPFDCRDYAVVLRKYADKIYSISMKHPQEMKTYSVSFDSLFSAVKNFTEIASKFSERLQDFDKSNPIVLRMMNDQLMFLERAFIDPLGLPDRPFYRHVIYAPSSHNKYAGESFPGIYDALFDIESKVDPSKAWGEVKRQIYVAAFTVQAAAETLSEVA
Description: RPMI1640 supplemented with 1% BSA (bovine serum albumin) was used as a buffer solution.
[^125I]15 (0.1 nM) was added to a vessel containing 22RV1 cells (5×10^4), to which [^18F]1-1 to [^18F]1-9 compounds were loaded at 9 concentrations ([…]), followed by stirring at 37° C. for 2 hours. Upon completion of the stirring, the vessel was washed with 2 mL of PBS solution three times, and then the remaining radioactivity and 50% inhibition concentration (nonlinear regression method) were measured using a gamma counter (2480 WIZARD2 Gamma Counter PerkinElmer Co., MA) and GraphPad Prism (GraphPad Software, Inc., CA).

PSMA+ PC-3 PIP tumor = assay: Biodistribution test with prostate cancer model mouse
[1] = 0.5 h after tail vein injection

With O=C(O)CC[C@H](NC(=O)N[C@@H](CCCCNC(=O)Nc1ccc([123I])cc1)C(=O)O)C(=O)O [Comparative Example 1, reference compound] the “% Internalization ratio (Mean ± SD)” value (PC-3 PIP; 30 min) was 91.27 ± 4.03%, the “% Internalization ratio (Mean ± SD)” value (PC-3 PIP; 60 min) was 86.91 ± 8.13% and the “% Internalization ratio (Mean ± SD)” value (PC-3 PIP; 120 min) was 94.31 ± 2.94%. The “% Internalization ratio (Mean ± SD)” value (PC-3 PIP; 240 min) was 95.01 ± 2.58%, the “tumor binding (MicroPET/CT, FIG. 3)” value (PSMA+ PC-3 PIP tumors) was “selectively bound to PSMA+PC-3 PIP tumors” and the “excretion (MicroPET/CT, FIG. 3)” value (PSMA+ PC-3 PIP tumors) was “rapidly excreted through the kidneys and bladder”.
Work on O=C(O)CC[C@H](NC(=O)N[C@@H](CCCCNC(=O)NCc1cn(CCF)nn1)C(=O)O)C(=O)O [Example 7-1] yielded an IC50 (PSMA protein) of 635 ± 263 nM.
O=C(O)CC[C@H](NC(=O)N[C@@H](CCCCNC(=O)Nc1ccc(I)cc1)C(=O)O)C(=O)O [Comparative Example 1, reference compound] was tested, and the IC50 (PSMA protein) was 30.7 ± 10.2 nM.
O=C(O)CC[C@H](NC(=O)N[C@@H](CCCCNC(=O)N(Cc1cn(CCOCC[18F])nn1)c1ccncc1)C(=O)O)C(=O)O [Example 7-6] showed a PIP to blood (PSMA+ PC-3 PIP tumor; [1]) of 14.05 ± 3.61, a PIP to liver (PSMA+ PC-3 PIP tumor; [1]) of 5.64 ± 6.10 and a PIP to muscle (PSMA+ PC-3 PIP tumor; [1]) of 13.00 ± 4.97. It also gave a PIP to spleen (PSMA+ PC-3 PIP tumor; [1]) of 7.31 ± 3.34, a PIP/flu (PSMA+ PC-3 PIP tumor; [1]) of 16.00 ± 5.68 and a PIP to blood (PSMA+ PC-3 PIP tumor; 1 h after tail vein injection) of 30.30 ± 17.05. For the same compound, the PIP to liver (PSMA+ PC-3 PIP tumor; 1 h after tail vein injection) was 9.93 ± 13.26, the PIP to muscle (PSMA+ PC-3 PIP tumor; 1 h after tail vein injection) was 20.11 ± 14.99 and the PIP to spleen (PSMA+ PC-3 PIP tumor; 1 h after tail vein injection) was 12.46 ± 16.18. For the same compound, the PIP/flu (PSMA+ PC-3 PIP tumor; 1 h after tail vein injection) was 23.08 ± 14.91, the PIP to blood (PSMA+ PC-3 PIP tumor; 2 h after tail vein injection) was 36.90 ± 9.52 and the PIP to liver (PSMA+ PC-3 PIP tumor; 2 h after tail vein injection) was 13.71 ± 12.60. The PIP to muscle (PSMA+ PC-3 PIP tumor; 2 h after tail vein injection) was 38.11 ± 14.83, the PIP to spleen (PSMA+ PC-3 PIP tumor; 2 h after tail vein injection) was 25.98 ± 8.66 and the PIP/flu (PSMA+ PC-3 PIP tumor; 2 h after tail vein injection) was 33.32 ± 14.64. It also gave a PIP to blood (PSMA+ PC-3 PIP tumor; 4 h after tail vein injection) of 42.90 ± 18.49, a PIP to liver (PSMA+ PC-3 PIP tumor; 4 h after tail vein injection) of 19.77 ± 11.81 and a PIP to muscle (PSMA+ PC-3 PIP tumor; 4 h after tail vein injection) of 45.39 ± 22.54. The PIP to spleen (PSMA+ PC-3 PIP tumor; 4 h after tail vein injection) was 32.51 ± 10.12, the PIP/flu (PSMA+ PC-3 PIP tumor; 4 h after tail vein injection) was 35.69 ± 11.64 and the “% Internalization ratio (Mean ± SD)” value (PC-3 PIP; 30 min) was 93.30 ± 2.11%. The “% Internalization ratio (Mean ± SD)” value (PC-3 PIP; 60 min) was 91.89 ± 5.76%, the “% Internalization ratio (Mean ± SD)” value (PC-3 PIP; 120 min) was 94.77 ± 2.92% and the “% Internalization ratio (Mean ± SD)” value (PC-3 PIP; 240 min) was 96.32 ± 1.08%. The “tumor binding (MicroPET/CT, FIG. 3)” value (PSMA+ PC-3 PIP tumors) was “selectively bound to PSMA+PC-3 PIP tumors”, the “excretion (MicroPET/CT, FIG. 3)” value (PSMA+ PC-3 PIP tumors) was “rapidly excreted through the kidneys and bladder” and the “binding capacity higher than [18F]DCFPyL (Comparative Example 1)” value (PSMA protein) was “about 6 times”. For the same compound, the “binding to the PSMA protein (in words)” value (PSMA protein) was “most strongly bound” and the IC50 (PSMA protein) was 5.08 nM.
Compound O=C(O)CC[C@H](NC(=O)N[C@@H](CCCCNC(=O)N(Cc1ccncc1)Cc1cn(CCOCC[18F])nn1)C(=O)O)C(=O)O [Example 7-5] has an IC50 (PSMA protein) of 11.8 nM.
For O=C(O)CC[C@H](NC(=O)N[C@@H](CCCCNC(=O)NCc1cn(CCOCC[18F])nn1)C(=O)O)C(=O)O [Example 7-4], the IC50 (PSMA protein) was 57 ± 33 nM.
